SMILES	melting point [°C]
N#Cc1ccc(C=CC(=O)c2ccc(N3CCNCC3)cc2)cc1 [Vb, 4-(3-Oxo-3–(4-(piperazin-1-yl)phenyl)prop-1-enyl)benzonitrile]	170
O=C(C=Cc1cc([N+](=O)[O-])ccc1O)c1ccc(N2CCNCC2)cc1 [Vg, 3-(2-Hydroxy-5-nitrophenyl)-1-(4-(piperazin-1-yl)phenyl)prop-2-en-1-one]	185
O=C(C=Cc1ccco1)c1ccc(N2CCNCC2)cc1 [Vh, 3-(Furan-2-yl)-1-(4-(piperazin-1-yl)phenyl)prop-2-en-1-one]	190

Now from value to compound:

melting point [°C]	SMILES
150	N#Cc1ccccc1C=CC(=O)c1ccc(N2CCNCC2)cc1 [Va, 2-(3-Oxo-3-(4-(piperazin-1-yl)phenyl)prop-1-enyl)benzonitrile]
176	O=C(C=Cc1ccccc1F)c1ccc(N2CCNCC2)cc1 [Vc, 3-(2-Fluorophenyl)-1-(4-(piperazin-1-yl)phenyl)prop-2-en-1-one]

Reference: paper PMC7758046, “Novel piperazine–chalcone hybrids and related pyrazoline analogues targeting VEGFR-2 kinase; design, synthesis, molecular docking studies, and anticancer evaluation” (Journal of Enzyme Inhibition and Medicinal Chemistry, 2020)
